# Molecular target: T1, formate dehydrogenase (FDH) (Candida boidinii, UniProt O13437)
# T1 sequence (O13437 1-364): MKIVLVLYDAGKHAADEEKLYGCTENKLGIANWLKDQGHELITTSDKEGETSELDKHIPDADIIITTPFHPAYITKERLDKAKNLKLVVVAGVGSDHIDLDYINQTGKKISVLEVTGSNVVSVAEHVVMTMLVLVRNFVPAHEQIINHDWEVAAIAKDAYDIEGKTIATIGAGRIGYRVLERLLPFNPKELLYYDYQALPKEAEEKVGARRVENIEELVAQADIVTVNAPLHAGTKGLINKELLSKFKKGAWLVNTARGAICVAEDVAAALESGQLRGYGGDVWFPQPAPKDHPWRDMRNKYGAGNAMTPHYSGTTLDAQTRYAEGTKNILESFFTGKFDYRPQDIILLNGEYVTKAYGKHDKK
# Test: FDH reaction system using methylviologen as artificial coenzyme
# Type: biochemical
# Details: 5.0 units FDH
# Method: 2.2 mM of formic acid, 4.4 mM of methylviologen (MV^2+ was used), and 5.0 units of FDH were incubated, and NADH was detected (lower row, left).
# The enzyme catalyzing the reaction converting formic acid into carbon dioxide, “formate dehydrogenase (FDH)” also catalyzes the reaction converting carbon dioxide into formic acid. It should be noted that the speed of the conversion reaction from carbon dioxide into formic acid (reverse reaction) is about one sixth the speed of the conversion reaction from formic acid into carbon dioxide (forward reaction) (FIG. 1). Suppression of the forward reaction is important for the formation of formic acid from carbon dioxide using this enzyme. The original coenzyme of FDH is NAD^+, but methylviologen may be used as an artificial coenzyme (mediator) (Non-Patent Literature 2). However, in the past report, only the interaction between FDH and methylviologen is electrochemically measured, so that no essential finding about the interaction is obtained. Therefore, we studied the characteristics of the […] reaction system using methylviologen as an artificial coenzyme in detail. […] Methylviologen is advantageous also in that it is readily photoreduced using a photosensitive molecule. In contrast, photoreduction of the original coenzyme, NAD^+ is not easy.
compound,measurement,setting,value
"C[n+]1ccc(-c2cc[n+](C)cc2)cc1 [methylviologen, 1,1′-dimethyl-4,4′-bipyridinium dichloride]",conversion reaction from carbon dioxide into formic acid (reverse reaction),"2.2 mM CO2, 4.4 mM MV^2+ reduced",only proceeds
same,conversion reaction from formic acid into carbon dioxide (forward reaction),"2.2 mM formic acid, 4.4 mM MV^2+",does not proceed at all
